Data published in ChEMBL document CHEMBL3046339, “Insecticidal activity of Maytenus species (Celastraceae) nortriterpene quinone methides against codling moth, Cydia pomonella (L.) (Lepidoptera: tortricidae)” (2000).
Values after ≈ are worked out from the molar mass of the structure shown.

Legend:
Type in all cases: functional
Cydia pomonella [1] = assay: Insecticidal activity against Cydia pomonella (codling moth) at 20 mg/kg assessed as growth regulation measured as number of head capsules of larvae after 10 days of continuous exposure Rvb = (1.5 +/- 0.2%)
Cydia pomonella [2] = assay: Insecticidal activity against Cydia pomonella (codling moth) at 6 mg/kg assessed as growth regulation measured as number of head capsules of larvae after 10 days of continuous exposure Rvb = (1.5 +/- 0.2%)
Cydia pomonella [3] = assay: Antifeedant activity against Cydia pomonella (codling moth) at 2 mg/kg diet topically measured after 10 days of continuous exposure (reference value: 6.7 +/- 6.7%)
Cydia pomonella [4] = assay: Insecticidal activity against Cydia pomonella (codling moth) at 1 mg/kg assessed as growth regulation measured as number of head capsules of larvae after 10 days of continuous exposure Rvb = (1.5 +/- 0.2%)
Cydia pomonella [5] = assay: Insecticidal activity against Cydia pomonella (codling moth) assessed as mortality treated diet topically measured after 10 days of continuous exposure; conditions: topical, 240 h
Cydia pomonella [6] = assay: Insecticidal activity against Cydia pomonella (codling moth) assessed as mortality at 16 mg/kg diet topically measured after 5 days of continuous exposure (reference value: 0%); conditions: topical, 120 h
Cydia pomonella [7] = assay: Insecticidal activity against Cydia pomonella (codling moth) assessed as mortality at 18 mg/kg diet topically measured after 5 days of continuous exposure (reference value: 0%); conditions: topical, 120 h
Cydia pomonella [8] = assay: Insecticidal activity against Cydia pomonella (codling moth) at 2 mg/kg assessed as growth regulation measured as number of head capsules of larvae after 5 days of continuous exposure (reference value: 0.2 +/- 0.2%)
Cydia pomonella [9] = assay: Antifeedant activity against Cydia pomonella (codling moth) at 12 mg/kg diet topically measured after 5 days of continuous exposure (reference value: 6.7 +/- 6.7%)
Cydia pomonella [10] = assay: Insecticidal activity against Cydia pomonella (codling moth) assessed as mortality at 6 mg/kg diet topically measured after 10 days of continuous exposure (reference value: 3.3 +/- 3.3%); conditions: topical, 240 h
Cydia pomonella [11] = assay: Insecticidal activity against Cydia pomonella (codling moth) assessed as mortality at 4 mg/kg diet topically measured after 5 days of continuous exposure (reference value: 0%); conditions: topical, 120 h
Cydia pomonella [12] = assay: Insecticidal activity against Cydia pomonella (codling moth) at 16 mg/kg assessed as growth regulation measured as number of head capsules of larvae after 10 days of continuous exposure Rvb = (1.5 +/- 0.2%)
Cydia pomonella [13] = assay: Insecticidal activity against Cydia pomonella (codling moth) at 4 mg/kg assessed as growth regulation measured as number of head capsules of larvae after 10 days of continuous exposure Rvb = (1.5 +/- 0.2%)
Cydia pomonella [14] = assay: Insecticidal activity against Cydia pomonella (codling moth) assessed as mortality at 4 mg/kg diet topically measured after 10 days of continuous exposure (reference value: 3.3 +/- 3.3%); conditions: topical, 240 h
Cydia pomonella [15] = assay: Antifeedant activity against Cydia pomonella (codling moth) at 8 mg/kg diet topically measured after 10 days of continuous exposure (reference value: 6.7 +/- 6.7%)
Cydia pomonella [16] = assay: Insecticidal activity against Cydia pomonella (codling moth) at 1 mg/kg assessed as growth regulation measured as number of head capsules of larvae after 5 days of continuous exposure (reference value: 0.2 +/- 0.2%)
Cydia pomonella [17] = assay: Insecticidal activity against Cydia pomonella (codling moth) at 4 mg/kg assessed as growth regulation measured as number of head capsules of larvae after 5 days of continuous exposure (reference value: 0.2 +/- 0.2%)
Cydia pomonella [18] = assay: Antifeedant activity against Cydia pomonella (codling moth) at 8 mg/kg diet topically measured after 5 days of continuous exposure (reference value: 6.7 +/- 6.7%)
Cydia pomonella [19] = assay: Antifeedant activity against Cydia pomonella (codling moth) at 1 mg/kg diet topically measured after 5 days of continuous exposure (reference value: 6.7 +/- 6.7%)
Cydia pomonella [20] = assay: Insecticidal activity against Cydia pomonella (codling moth) assessed as mortality at 8 mg/kg diet topically measured after 5 days of continuous exposure (reference value: 0%); conditions: topical, 120 h
Cydia pomonella [21] = assay: Insecticidal activity against Cydia pomonella (codling moth) assessed as mortality at 20 mg/kg diet topically measured after 5 days of continuous exposure (reference value: 0%); conditions: topical, 120 h
Cydia pomonella [22] = assay: Antifeedant activity against Cydia pomonella (codling moth) at 18 mg/kg diet topically measured after 5 days of continuous exposure (reference value: 6.7 +/- 6.7%)
Cydia pomonella [23] = assay: Insecticidal activity against Cydia pomonella (codling moth) at 2 mg/kg assessed as growth regulation measured as number of head capsules of larvae after 10 days of continuous exposure Rvb = (1.5 +/- 0.2%)
Cydia pomonella [24] = assay: Insecticidal activity against Cydia pomonella (codling moth) at 12 mg/kg assessed as growth regulation measured as number of head capsules of larvae after 5 days of continuous exposure (reference value: 0.2 +/- 0.2%)
Cydia pomonella [25] = assay: Insecticidal activity against Cydia pomonella (codling moth) assessed as mortality at 2 mg/kg diet topically measured after 5 days of continuous exposure (reference value: 0%); conditions: topical, 120 h
Cydia pomonella [26] = assay: Insecticidal activity against Cydia pomonella (codling moth) assessed as mortality at 12 mg/kg diet topically measured after 5 days of continuous exposure (reference value: 0%); conditions: topical, 120 h
Cydia pomonella [27] = assay: Insecticidal activity against Cydia pomonella (codling moth) assessed as mortality diet topically measured after 5 days of continuous exposure; conditions: topical, 120 h
Cydia pomonella [28] = assay: Antifeedant activity against Cydia pomonella (codling moth) at 18 mg/kg diet topically measured after 10 days of continuous exposure (reference value: 6.7 +/- 6.7%)
Cydia pomonella [29] = assay: Insecticidal activity against Cydia pomonella (codling moth) assessed as mortality at 2 mg/kg diet topically measured after 10 days of continuous exposure (reference value: 3.3 +/- 3.3%); conditions: topical, 240 h
Cydia pomonella [30] = assay: Antifeedant activity against Cydia pomonella (codling moth) at 20 mg/kg diet topically measured after 5 days of continuous exposure (reference value: 6.7 +/- 6.7%)
Cydia pomonella [31] = assay: Antifeedant activity against Cydia pomonella (codling moth) at 6 mg/kg diet topically measured after 10 days of continuous exposure (reference value: 6.7 +/- 6.7%)
Cydia pomonella [32] = assay: Insecticidal activity against Cydia pomonella (codling moth) assessed as mortality at 20 mg/kg diet topically measured after 10 days of continuous exposure (reference value: 3.3 +/- 3.3%); conditions: topical, 240 h
Cydia pomonella [33] = assay: Insecticidal activity against Cydia pomonella (codling moth) assessed as mortality at 18 mg/kg diet topically measured after 10 days of continuous exposure (reference value: 3.3 +/- 3.3%); conditions: topical, 240 h
Cydia pomonella [34] = assay: Insecticidal activity against Cydia pomonella (codling moth) assessed as mortality at 1 mg/kg diet topically measured after 5 days of continuous exposure (reference value: 0%); conditions: topical, 120 h
Cydia pomonella [35] = assay: Antifeedant activity against Cydia pomonella (codling moth) at 4 mg/kg diet topically measured after 5 days of continuous exposure (reference value: 6.7 +/- 6.7%)
Cydia pomonella [36] = assay: Insecticidal activity against Cydia pomonella (codling moth) assessed as mortality at 1 mg/kg diet topically measured after 10 days of continuous exposure (reference value: 3.3 +/- 3.3%); conditions: topical, 240 h

CC1=C(O)C(=O)C=C2C1=CC=C1[C@@]2(C)CC[C@@]2(C)[C@@H]3C[C@](C)(O)C(=O)C[C@]3(C)CC[C@]12C [20ALPHA-HYDROXYTINGENONE] gave an Activity (Cydia pomonella [1]) of 0, an Activity (Cydia pomonella [2]) of 0.6 and an Activity (Cydia pomonella [3]) of 3.3%. It also gave an Activity (Cydia pomonella [4]) of 1.2, an LC50 (Cydia pomonella [5]) of 8.5 mg/mL (≈ 19.5 mM) and a mortality at 16 mg/kg (Cydia pomonella [6]) of 60%. It also gave a mortality at 18 mg/kg (Cydia pomonella [7]) of 86.7%, an Activity (Cydia pomonella [8]) of 0.1 and an Activity (Cydia pomonella [9]) of 96.7%. For the same compound, the mortality at 6 mg/kg (Cydia pomonella [10]) was 23.3%, the mortality at 4 mg/kg (Cydia pomonella [11]) was 6.7% and the Activity (Cydia pomonella [12]) was 0. It also gave an Activity (Cydia pomonella [13]) of 0.6, a mortality at 4 mg/kg (Cydia pomonella [14]) of 16.7% and an Activity (Cydia pomonella [15]) of 80%. It also gave an Activity (Cydia pomonella [16]) of 0.1, an Activity (Cydia pomonella [17]) of 0 and an Activity (Cydia pomonella [18]) of 100%. For the same compound, the Activity (Cydia pomonella [19]) was 6.7%, the mortality at 8 mg/kg (Cydia pomonella [20]) was 3.3% and the mortality at 20 mg/kg (Cydia pomonella [21]) was 100%. The Activity (Cydia pomonella [22]) was 100%, the Activity (Cydia pomonella [23]) was 1.4 and the Activity (Cydia pomonella [24]) was 0. The mortality at 2 mg/kg (Cydia pomonella [25]) was 0%, the mortality at 12 mg/kg (Cydia pomonella [26]) was 53.3% and the LC50 (Cydia pomonella [27]) was 13 mg/mL (≈ 29.8 mM). For the same compound, the Activity (Cydia pomonella [28]) was 100%, the mortality at 2 mg/kg (Cydia pomonella [29]) was 0% and the Activity (Cydia pomonella [30]) was 100%. It also gave an Activity (Cydia pomonella [31]) of 53.3%, a mortality at 20 mg/kg (Cydia pomonella [32]) of 100% and a mortality at 18 mg/kg (Cydia pomonella [33]) of 93.3%. It also gave a mortality at 1 mg/kg (Cydia pomonella [34]) of 3.3%, an Activity (Cydia pomonella [35]) of 46.7% and a mortality at 1 mg/kg (Cydia pomonella [36]) of 3.3%.
